# The supplement of paper PMC4862054
# Columns and labels:
# Details in all cases: 72 h
# MDA-MB-468 [1] = test system: MDA-MB-468
# In short: (§1)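 Breast cancer cell lines (20 µl suspension) were seeded into 384-well plates holding compound at 5 concentrations in 10-fold steps over a compound-specific 10,000-fold range, then incubated 72 h. Cell death was read first by CellTox Green fluorescence (485/520 nm), then viability by CellTiter-Glo luminescence after 10 min at room temperature. Each plate was normalised to 0.1 % DMSO and a positive kill control. EC50 was fitted from the dose-response curves and censored at the top concentration.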
# MDA-MB-231 [2] = test system: MDA-MB-231
# In short: as §1
# DU-4475 = test system: DU-4475
# In short: as §1
# BT-474 [3] = test system: BT-474
# In short: as §1
# MFM-223 [4] = test system: MFM-223
# In short: as §1
# SK-BR-3 = test system: SK-BR-3
# In short: as §1
# CAL-148 [5] = test system: CAL-148
# In short: as §1
# HCC1937 [6] = test system: HCC1937
# In short: as §1
# HCC1599 [7] = test system: HCC1599
# In short: as §1
# MDA-MB-453 [8] = test system: MDA-MB-453
# In short: as §1
# CAL-120 [9] = test system: CAL-120
# In short: as §1
# MDA-MB-436 [10] = test system: MDA-MB-436
# In short: as §1
# HDQ-P1 [11] = test system: HDQ-P1
# In short: as §1
# CAL-51 [12] = test system: CAL-51
# In short: as §1
# CAL-85-1 [13] = test system: CAL-85-1
# In short: as §1
# MCF-10A [14] = test system: MCF-10A
# In short: as §1
# BT-549 [15] = test system: BT-549
# In short: as §1
# HCC1143 = test system: HCC1143
# In short: as §1
# MDA-MB-468 [16] = test system: MDA-MB-468; remark: listed apart in the source
# Procedure: (§2)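 Drug sensitivity and resistance testing (DSRT) of breast cancer cell lines in 384-well plates, 5 concentrations in 10-fold dilutions over a compound-specific 10,000-fold range. After 72 h, cytotoxicity was read by CellTox Green fluorescence and viability by CellTiter-Glo luminescence (multiplexed), normalised to DMSO and benzethonium chloride controls. EC50 is the inflection point of the fitted dose-response curve (bottom asymptote free, so it can be relative for partial curves) and is censored at the highest tested concentration. Rows with DSS 0 (no meaningful response) were excluded.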
# MDA-MB-231 [17] = test system: MDA-MB-231; remark: listed apart in the source
# Procedure: as §2
# BT-474 [18] = test system: BT-474; remark: listed apart in the source
# Procedure: as §2
# MFM-223 [19] = test system: MFM-223; remark: listed apart in the source
# Procedure: as §2
# CAL-148 [20] = test system: CAL-148; remark: listed apart in the source
# Procedure: as §2
# HCC1937 [21] = test system: HCC1937; remark: listed apart in the source
# Procedure: as §2
# HCC1599 [22] = test system: HCC1599; remark: listed apart in the source
# Procedure: as §2
# MDA-MB-453 [23] = test system: MDA-MB-453; remark: listed apart in the source
# Procedure: as §2
# CAL-120 [24] = test system: CAL-120; remark: listed apart in the source
# Procedure: as §2
# MDA-MB-436 [25] = test system: MDA-MB-436; remark: listed apart in the source
# Procedure: as §2
# HDQ-P1 [26] = test system: HDQ-P1; remark: listed apart in the source
# Procedure: as §2
# CAL-51 [27] = test system: CAL-51; remark: listed apart in the source
# Procedure: as §2
# CAL-85-1 [28] = test system: CAL-85-1; remark: listed apart in the source
# Procedure: as §2
# MCF-10A [29] = test system: MCF-10A; remark: listed apart in the source
# Procedure: as §2
# BT-549 [30] = test system: BT-549; remark: listed apart in the source
# Procedure: as §2
structure (smiles),measurement,setting,value
COc1cc2c(NC3CCN(C(C)C)CC3)nc(C3CCCCC3)nc2cc1OCCCN1CCCC1 [UNC0638],"EC50, CellTiter-Glo",MDA-MB-468 [1],1.95 µM
same,"EC50, CellTiter-Glo",MDA-MB-231 [2],2.54 µM
same,"EC50, CellTiter-Glo",DU-4475,1.65 µM
same,"EC50, CellTiter-Glo",BT-474 [3],2.66 µM
same,"EC50, CellTiter-Glo",MFM-223 [4],2.27 µM
same,"EC50, CellTiter-Glo",SK-BR-3,2.27 µM
same,"EC50, CellTiter-Glo",CAL-148 [5],2.51 µM
same,"EC50, CellTiter-Glo",HCC1937 [6],3.46 µM
same,"EC50, CellTiter-Glo",HCC1599 [7],2.79 µM
same,"EC50, CellTiter-Glo",MDA-MB-453 [8],2.4 µM
same,"EC50, CellTiter-Glo",CAL-120 [9],2.72 µM
same,"EC50, CellTiter-Glo",MDA-MB-436 [10],2.51 µM
same,"EC50, CellTiter-Glo",HDQ-P1 [11],5.25 µM
same,"EC50, CellTiter-Glo",CAL-51 [12],1.66 µM
same,"EC50, CellTiter-Glo",CAL-85-1 [13],3.52 µM
same,"EC50, CellTiter-Glo",MCF-10A [14],1.88 µM
same,"EC50, CellTiter-Glo",BT-549 [15],2.53 µM
same,"EC50, CellTiter-Glo",HCC1143,2.38 µM
same,"EC50, CellTox Green",MDA-MB-468 [16],2.38 µM
same,"EC50, CellTox Green",MDA-MB-231 [17],1.65 µM
same,"EC50, CellTox Green",BT-474 [18],2.2 µM
same,"EC50, CellTox Green",MFM-223 [19],2.92 µM
same,"EC50, CellTox Green",CAL-148 [20],2.73 µM
same,"EC50, CellTox Green",HCC1937 [21],2.14 µM
same,"EC50, CellTox Green",HCC1599 [22],1.44 µM
same,"EC50, CellTox Green",MDA-MB-453 [23],2.52 µM
same,"EC50, CellTox Green",CAL-120 [24],2.44 µM
same,"EC50, CellTox Green",MDA-MB-436 [25],4.24 µM
same,"EC50, CellTox Green",HDQ-P1 [26],4.72 µM
same,"EC50, CellTox Green",CAL-51 [27],1.65 µM
same,"EC50, CellTox Green",CAL-85-1 [28],2.44 µM
same,"EC50, CellTox Green",MCF-10A [29],2.23 µM
same,"EC50, CellTox Green",BT-549 [30],2.1 µM
